Patent publication US20100261719A1, “CHEMICAL COMPOUNDS” (priority 2007, published 2010)

molecular target: Escherichia coli DNA gyrase A/B tetramer (Escherichia coli, UniProt P0AES4+P0AES6); test: DNA gyrase supercoiling activity fluorescence polarisation assay; assay type: biochemical; details: not given
Method: In a black, 384-well polystyrene assay plate, 30 microliters/well of 5 nM Escherichia coli DNA gyrase A/B tetramer and 130 micrograms/ml of topologically relaxed plasmid containing the triplex-forming sequence […] in an assay buffer consisting of 35 mM Tris-HCl (pH 7.5), 24 mM KCl, 4 mM MgCl2, 2 mM dithiothreitol, 1.8 mM spermidine, 5% (v/v) glycerol, 200 nM bovine serum albumin, 0.8% dimethylsulfoxide, and 0.3 mM ATP may be incubated at ambient temperature for (typically 30 minutes) in the absence or presence of 5-10 different concentrations of test compound. The supercoiling reactions may be quenched by the addition of 10 microliters/well of 40 nM oligodeoxynucleotide probe in 3× triplex-forming buffer consisting of 150 mM NaCl, and 150 mM sodium acetate at pH 3.5. The oligodeoxynucleotide probe may be 5′-BODIPY-FL-labeled TTCTTCTTC. After 60 minutes, the fluorescence anisotropy of the BODIPY-FL may be measured in a Tecan Ultra plate reader, using 485 nm excitation and 535 nm emission filters equipped with polarizers. The IC50 may be determined by nonliner regression using two control reactions. The first contains no test compound but 0.8% DMSO (100% activity) while the second control reaction contains 5 uM Ciprofloxacin and 0.8% DMSO (0% activity).
When tested in an in-vitro assay based on the DNA gyrase supercoiling activity fluorescence polarisation assay described above, the E. coli DNA gyrase supercoiling IC50 assay inhibitory activity of the following Examples was measured at the indicated IC50.

Chain of Escherichia coli DNA gyrase A/B tetramer (P0AES4 whole entry, one chain of several): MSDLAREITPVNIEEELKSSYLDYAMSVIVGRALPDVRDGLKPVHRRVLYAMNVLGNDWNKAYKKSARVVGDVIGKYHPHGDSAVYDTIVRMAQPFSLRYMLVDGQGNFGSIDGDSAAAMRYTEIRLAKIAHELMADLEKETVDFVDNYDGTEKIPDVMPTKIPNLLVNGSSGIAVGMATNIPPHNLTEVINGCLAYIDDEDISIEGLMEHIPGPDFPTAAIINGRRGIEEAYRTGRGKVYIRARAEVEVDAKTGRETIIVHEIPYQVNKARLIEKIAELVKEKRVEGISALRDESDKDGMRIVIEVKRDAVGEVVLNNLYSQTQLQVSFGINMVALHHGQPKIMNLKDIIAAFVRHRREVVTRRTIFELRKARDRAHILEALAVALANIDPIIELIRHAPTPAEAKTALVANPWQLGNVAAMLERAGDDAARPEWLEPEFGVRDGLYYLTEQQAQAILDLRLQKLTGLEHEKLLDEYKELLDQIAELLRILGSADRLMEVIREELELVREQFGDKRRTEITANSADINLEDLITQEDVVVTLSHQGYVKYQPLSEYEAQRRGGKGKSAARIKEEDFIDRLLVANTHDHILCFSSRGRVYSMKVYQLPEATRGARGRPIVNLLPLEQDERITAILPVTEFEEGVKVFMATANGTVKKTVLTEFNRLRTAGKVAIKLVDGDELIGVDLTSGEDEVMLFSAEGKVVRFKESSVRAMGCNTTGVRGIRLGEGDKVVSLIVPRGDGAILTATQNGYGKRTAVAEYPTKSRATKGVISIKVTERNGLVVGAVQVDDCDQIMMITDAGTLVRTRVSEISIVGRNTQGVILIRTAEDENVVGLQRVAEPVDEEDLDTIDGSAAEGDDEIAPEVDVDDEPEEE

| SMILES | IC50 |
| --- | --- |
| CC(=O)N/N=C(\C)c1cc2c(c(F)c1F)N1C[C@@H](C)O[C@@H](C)[C@@H]1C1(C2)C(=O)NC(=O)NC1=O (relative stereo) [Example 48, N′-{(1E)-1-[(2R,4S,4aS)-rel-9,10-Difluoro-2,4-dimethyl-2′,4′,6′-trioxo-1,1′,2,3′,4,4′,4a,6′-octahydro-2′H,6H-spiro[1,4-oxazino[4,3-a]quinoline-5,5′-pyrimidin]-8-yl]ethylidene}acetohydrazide] | 1300 nM |
| C[C@@H]1CN2c3cc(F)c(C#Cc4nc5ccccc5s4)cc3CC3(C(=O)NC(=O)NC3=O)[C@H]2[C@H](C)O1 (relative stereo) [Example 34, (2R,4S,4aS)-rel-8-(1,3-Benzothiazol-2-ylethynyl)-9-fluoro-2,4-dimethyl-1,2,4,4a-tetrahydro-2′H,6H-spiro[1,4-oxazino[4,3-a]quinoline-5,5′-pyrimidine]-2′,4′,6′(1′H,3′H)-trione] | 2950 nM |
| C[C@H]1CN2c3c(cc(C#C[Si](C)(C)C)c(F)c3F)CC3(C(=O)NC(=O)NC3=O)[C@@H]2[C@@H](C)O1 (relative stereo) [Example 6, (2S,4R,4aR)-rel-9,10-Difluoro-2,4-dimethyl-8-[(trimethylsilyl)ethynyl]-1,2,4,4a-tetrahydro2′H,6H-spiro[1,4-oxazino[4,3-a]quinoline-5,5′-pyrimidine]-2′,4′,6′(1′H,3′H)-trione] | 3270 nM |
| C[C@@H]1CN2c3c(cc(/C=N/N4CCCC4)c(F)c3F)CC3(C(=O)NC(=O)NC3=O)[C@H]2[C@H](C)O1 (relative stereo) [Example 21, (2R,4S,4 aS)-rel-9,10-Difluoro-2,4-dimethyl-8-[(E)-(pyrrolidin-1-ylimino)methyl]-1,2,4,4a-tetrahydro-2′H,6H-spiro[1,4-oxazino[4,3-a]quinoline-5,5′-pyrimidine]-2′,4′,6′(1′H,3′H)-trione] | 2250 nM |
| COC(=O)N/N=C(\C)c1cc2c(c(F)c1F)N1C[C@@H](C)O[C@@H](C)[C@@H]1C1(C2)C(=O)NC(=O)NC1=O (racemic) [Example 49, Methyl (2E)-2-{1-[(2R,4S,4aS)-rel-9,10-difluoro-2,4-dimethyl-2′,4′6′-trioxo-1,1′,2,3′,4,4′,4a,6′-octahydro-2′H,6H-spiro[1,4-oxazino[4,3-a]quinoline-5,5′-pyrimidin]-8-yl]ethylidene}hydrazinecarboxylate] | 450 nM |
| C[C@@H]1CN2c3cc(F)c(C#Cc4cnccn4)cc3CC3(C(=O)NC(=O)NC3=O)[C@H]2[C@H](C)O1 (relative stereo) [Example 31, (2R,4S,4aS)-rel-9-Fluoro-2,4-dimethyl-8-(pyrazin-2-ylethynyl)-1,2,4,4a-tetrahydro-2′H,6H-spiro[1,4-oxazino[4,3-a]quinoline-5,5′-pyrimidine]-2′,4′,6′(1′H,3′H)-trione] | 980 nM |
| C[C@@H]1CN2c3c(F)cc(C#Cc4nncs4)cc3CC3(C(=O)NC(=O)NC3=O)[C@H]2[C@H](C)O1 (relative stereo) [Example 36, (2R,4S,4aS)-rel-10-Fluoro-2,4-dimethyl-8-(1,3,4-thiadiazol-2-ylethynyl)-1,2,4,4a-tetrahydro-2′H,6H-spiro[1,4-oxazino[4,3-a]quinoline-5,5′-pyrimidine]-2′,4′,6′(1′H,3′H)-trione] | 710 nM |
| C[C@H]1CN2c3c(cc(C#Cc4cnccn4)c(F)c3F)CC3(C(=O)NC(=O)NC3=O)[C@@H]2[C@@H](C)O1 (relative stereo) [Example 20, (2S,4R,4aR)-rel-9,10-Difluoro-2,4-dimethyl-8-(pyrazin-2-ylethynyl)-1,2,4,4a-tetrahydro-2′H,6H-spiro[1,4-oxazino[4,3-a]quinoline-5,5′-pyrimidine]-2′,4′,6′(1′H,3′H)-trione] | 490 nM |
| C[C@@H]1CN2c3c(cc(C(=O)NC4CCN(C(=O)OC(C)(C)C)CC4)c(F)c3F)CC3(C(=O)NC(=O)NC3=O)[C@H]2[C@H](C)O1 (relative stereo) [Example 67, tert-Butyl 4-({[(2R,4S,4aS)-rel-9,10-difluoro-2,4-dimethyl-2′,4′,6′-trioxo-1,1′,2,3′,4,4′,4a,6′-octahydro-2′H,6H-spiro[1,4-oxazino[4,3-a]quinoline-5,5′-pyrimidin]-8-yl]carbonyl}amino)piperidine-1-carboxylate] | 12000 nM |
| C/C(=N\Nc1ccccc1)c1cc2c(c(F)c1F)N1C[C@@H](C)O[C@@H](C)[C@@H]1C1(C2)C(=O)NC(=O)NC1=O (relative stereo) [Example 58, (2R,4S,4aS)-rel-9,10-Difluoro-2,4-dimethyl-8-[(1E)-1-(2-phenylhydrazinylidene)ethyl]-1,2,4,4a-tetrahydro-2′H,6H-spiro[1,4-oxazino[4,3-a]quinoline-5,5′-pyrimidine]-2′,4′,6′(1′H,3′H)-trione] | 980 nM |
| C[C@@H]1CN2c3cc(F)c(C#Cc4nccs4)cc3CC3(C(=O)NC(=O)NC3=O)[C@H]2[C@H](C)O1 (relative stereo) [Example 26, (2R,4S,4aS)-rel-9-Fluoro-2,4-dimethyl-8-(1,3-thiazol-2-ylethynyl)-1,2,4,4a-tetrahydro-2′H,6H-spiro[1,4-oxazino[4,3-a]quinoline-5,5′-pyrimidine]-2′,4′,6′(1′H,3′H)-trione] | 1080 nM |
| C[C@@H]1CN2c3cc(F)c(C#Cc4nncs4)cc3CC3(C(=O)NC(=O)NC3=O)[C@H]2[C@H](C)O1 (relative stereo) [Example 24, (2R,4S,4aS)-rel-9-Fluoro-2,4-dimethyl-8-(1,3,4-thiadiazol-2-ylethynyl)-1,2,4,4a-tetrahydro-2′H,6H-spiro[1,4-oxazino[4,3-a]quinoline-5,5′-pyrimidine]-2′,4′,6′(1′H,3′H)-trione] | 350 nM |
| C/C(=N\Nc1ccccn1)c1cc2c(c(F)c1F)N1C[C@@H](C)O[C@@H](C)[C@@H]1C1(C2)C(=O)NC(=O)NC1=O (relative stereo) [Example 57, (2R,4S,4aS)-rel-9,10-Difluoro-2,4-dimethyl-8-{(1E)-1-[2-(pyridin-2-yl)hydrazinylidene]ethyl}-1,2,4,4a-tetrahydro-2′H,6H-spiro[1,4-oxazino[4,3-a]quinoline-5,5′-pyrimidine]-2′,4′,6′(1′H,3′H)-trione] | 850 nM |
| C[C@@H]1CN2c3ccc(NS(=O)(=O)N4CCOCC4)cc3CC3(C(=O)NC(=O)NC3=O)[C@H]2[C@H](C)O1 (relative stereo) [Example 75, N-[(2R,4S ,4aS)-rel-2,4-Dimethyl-2′,4′,6′-trioxo-1,1′,2,3′,4,4′,4a,6′-octahydro-2′H,6H-spiro[1,4-oxazino[4,3-a]quinoline-5,5′-pyrimidin]-8-yl]morpholine-4-sulfonamide] | 660 nM |
| C[C@@H]1CN2c3cc(F)c(C#Cc4cc5ccccc5s4)cc3CC3(C(=O)NC(=O)NC3=O)[C@H]2[C@H](C)O1 (racemic) [Example 29, (2R,4S,4aS)-rel-8-(1-Benzothiophen-2-ylethynyl)-9-fluoro-2,4-dimethyl-1,2,4,4a-tetrahydro-2′H,6H-spiro[1,4-oxazino[4,3-a]quinoline-5,5′-pyrimidine]-2′,4′,6′(1′H,3′H)-trione] | 20000 nM |
| C[C@@H]1CN2c3ccc(C#Cc4ccccn4)cc3CC3(C(=O)NC(=O)NC3=O)C2[C@H](C)O1 (relative stereo) [Example 2, (2R,4S)-rel-2,4-Dimethyl-8-(pyridin-2-ylethynyl)-1,2,4,4a-tetrahydro-2′H,6H-spiro[1,4-oxazino[4,3-a]quinoline-5,5′-pyrimidine]-2′,4′,6′(1′H,3′H)-trione] | 2090 nM |
| C/C(=N\NC(=O)OC(C)(C)C)c1cc2c(c(F)c1F)N1C[C@@H](C)O[C@@H](C)[C@@H]1C1(C2)C(=O)NC(=O)NC1=O (relative stereo) [Example 50, tert-Butyl (2E)-2-{1-[(2R,4S,4aS)-rel-9,10-difluoro-2,4-dimethyl-2′,4′,6′-trioxo-1,1′,2,3′,4,4′,4a,6′-octahydro-2′H,6H-spiro[1,4-oxazino[4,3-a]quinoline-5,5′-pyrimidin]-8-yl]ethylidene}hydrazinecarboxylate] | 2360 nM |
| C[C@@H]1CN2c3ccc(NC(=O)N(C)C)cc3CC3(C(=O)NC(=O)NC3=O)[C@H]2[C@H](C)O1 (relative stereo) [Example 77, 3-[(2R,4S,4aS)-rel-2,4-Dimethyl-2′,4′,6′-trioxo-1,1′,2,3′,4,4′,4a,6′-octahydro-2′H,6H-spiro[1,4-oxazino[4,3-a]quinoline-5,5′-pyrimidin]-8-yl]-1,1-dimethylurea] | 21700 nM |

same assay, conditions: 5 nM enzyme, 0.3 mM ATP, relaxed plasmid, fluorescence anisotropy readout; read-out: E. coli DNA gyrase supercoiling IC50

| SMILES | IC50 |
| --- | --- |
| C[C@@H]1CN2c3c(F)cc(C#Cc4cncs4)cc3CC3(C(=O)NC(=O)NC3=O)[C@H]2[C@H](C)O1 (relative stereo) [Example 39, (2R,4S,4aS)-rel-10-Fluoro-2,4-dimethyl-8-(1,3-thiazol-5-ylethynyl)-1,2,4,4a-tetrahydro-2′H,6′-spiro[1,4-oxazino[4,3-a]quinoline-5,5′-pyrimidine]-2′,4′,6′(1′H,3′H)-trione] | 870 nM |
| Cc1nnc(C#Cc2cc(F)c3c(c2)C(=O)C2(CNC(=O)NC2=O)[C@H]2[C@H](C)O[C@H](C)CN32)s1 (relative stereo) [Example 37, (2R,4S,4aS)-rel-10-Fluoro-2,4-dimethyl-8-[(5-methyl-1,3,4-thiadiazol-2-yl)ethynyl]-1,2,4,4a-tetrahydro-2′H,6H-spiro[1,4-oxazino[4,3-a]quinoline-5,5′-pyrimidine]-2′,4′,6(1′H,3′H)-trione] | 940 nM |
